{"source": "paper PMC4320118", "about": "“Micheliolide Derivative DMAMCL Inhibits Glioma Cell Growth In Vitro and In Vivo” (PLoS ONE, 2015)", "key": {"rat 9L gliosarcomas": {"system": "rat 9L gliosarcomas", "set-up": "method as in PMID 21559510", "conditions": "cited from earlier work"}, "[1]": {"system": "human U251 glioma xenografts", "set-up": "method as in PMID 21559510", "conditions": "human U251 glioma xenografts ref 12; cited from earlier work"}, "[2]": {"conditions": "cited from earlier work"}, "[3]": {"system": "primary acute myeloid leukemia (AML) cells", "conditions": "cited from earlier work"}, "intracerebral C6 glioma [4]": {"system": "intracerebral C6 glioma", "protocol": "Adult Wistar rats (120–180 g, age 4–8 weeks) were obtained from the Animal Center at the Academy of Military Medical Sciences and had animal certification of SCXK (army) 2012–001. Animals were housed in collective cages at a temperature of 23 ± 2°C and relative humidity of 40% to 70%. All rats had free access to food and water.\nIntracerebral tumor implantations were performed according to the following procedures. C6 tumors were maintained as subcutaneous tumors in rats. Subcutaneous masses were excised, dissociated, and mixed with matrigel on ice (BD Biosciences) at a ratio of 1:1. After removing of the hair on the skull, a small midline incision in the scalp was gently made under anesthesia with 2% sodium pentobarbital at a dose of 40mg/kg. C6 cells in matrigel (0.1 mL of the cell/matrigel mixture containing 10^8 cells /mL) were carefully injected into the right frontal cortex by a special 16-gauge stainless steel needle with 5 mm needle tubing. Implantation coordinates were determined from Swanson’s Stereotaxic Atlas guidelines (1992): 1.0 mm anterior and 3.0 mm lateral to bregma, at a depth of 5.0 mm from the brain surface. […] The syringe was slowly retracted, the hole was sealed with bone wax, and the incision was sutured under aseptic conditions. […] Then 0.015 mg/kg buprenorphine (s.c.) was administered to relieve the pain. The rats were replaced in cages and allowed to recover from anesthesia.\nRats were divided into the following 5 treatment groups 24 h after surgery (n = 9 rats /group) according to rat weight: 1) vehicle (normal saline: NS); 2) vincristine (VCR) at 100μg/kg; 3) DMAMCL at 25 mg/kg; 4) DMAMCL at 50 mg/kg; and 5) DMAMCL at 100 mg/kg. All drugs were prepared in NS and administered once daily for 21 days. DMAMCL was administered orally, and VCR was injected into the caudal vein. Rats were weighed and monitored for signs of mortality daily. Twenty one days into the treatment, rats were euthanized via CO2 asphyxiation under deep anesthesia by sodium pentobarbital. Brains and tumors were separated from the cerebellum and medulla oblongata, and weighed, photographed, fixed in formalin, and embedded in paraffin for sectioning. The tumor: brain weight ratio was assessed to observe the degree of tumor cell growth in brain. Serial sections (5 μm in thickness) were stained by hematoxylin and eosin (HE)."}, "intracerebral C6 glioma [5]": {"system": "intracerebral C6 glioma", "assay": "Survival time analysis in C6 intracerebral glioma rats", "type": "in vivo, Wistar rats", "conditions": "VCR, treated daily for 21 days", "protocol": "C6 tumors were maintained as subcutaneous tumors in rats.\nThe survival time analyses were performed in C6 intracerebral glioma rats. […] Animals were monitored daily for signs of mortality and weight. Rats were sacrificed when a loss of mobility, lethargy, hemorrhaging around the eyes, or a hunched posture was observed as previously described. The observation time was terminated when all the vehicle rats died. Then the other rats were euthanized by CO2 asphyxiation."}, "rat 9L gliosarcoma": {"system": "rat 9L gliosarcoma", "set-up": "method as in PMID 21727209", "conditions": "direct injection into the brain using biodegradable beads, increased from 12.5 days ref 26; cited from earlier work"}, "[6]": {"conditions": "VCR 100μg/kg caudal vein once daily for 21 days"}}, "note": "Marks after values point to notes of the source that are not given here."}
{"smiles": "C=CCc1ccc(O)c(-c2ccc(O)c(CC=C)c2)c1", "note": "[Honokiol]", "values": [{"measurement": "Increase of survival compared to controls", "setting": "rat 9L gliosarcomas", "value": 5, "unit": "days"}, {"measurement": "Reduction of tumor volume", "setting": "rat 9L gliosarcomas; rat 9L gliosarcomas ref 12", "value": 52.77, "unit": "%"}, {"measurement": "Reduction of tumor volume", "setting": "[1]", "value": 50.21, "unit": "%"}]}
{"smiles": "C=C1C(=O)O[C@H]2[C@H]1CCC(C)=C1CC[C@@](C)(O)[C@@H]12", "note": "[MCL, micheliolide]", "values": [{"measurement": "Stability compared with PTL", "setting": "[2]", "value": "more stable than PTL"}, {"measurement": "Number of colony-forming units of primary AML cells", "setting": "[3]", "value": "greatly reduced the number of colony-forming units"}]}
{"smiles": "C=C1C(=O)O[C@H]2[C@H]1CC/C(C)=C/CC[C@@]1(C)O[C@@H]21", "note": "[PTL, Parthenolide]", "values": [{"measurement": "Stability", "setting": "[2]; acidic and basic conditions ref 15", "value": "unstable under both acidic and basic conditions"}]}
{"smiles": "CC[C@]1(O)C[C@H]2CN(CCc3c([nH]c4ccccc34)[C@@](C(=O)OC)(c3cc4c(cc3OC)N(C=O)[C@H]3[C@@](O)(C(=O)OC)[C@H](OC(C)=O)[C@]5(CC)C=CCN6CC[C@]43[C@@H]65)C2)C1", "note": "[VCR, vincristine, reference compound]", "values": [{"measurement": "Deaths during the 21-day study", "setting": "intracerebral C6 glioma [4]; VCR 100μg/kg caudal vein once daily", "value": "One rat died on day 18"}, {"measurement": "Inhibition (percent decrease in tumor weight compared to the vehicle group)", "setting": "intracerebral C6 glioma [4]; [6]", "value": 81.6, "unit": "%"}, {"measurement": "Tumor weight", "setting": "intracerebral C6 glioma [4]; [6]", "value": "0.13 ± 0.07", "unit": "g"}, {"measurement": "Tumor/brain", "setting": "intracerebral C6 glioma [4]; [6]", "value": "6.5 ± 2.6", "unit": "%"}, {"measurement": "Histopathology of brain tissue (HE)", "setting": "intracerebral C6 glioma [4]; VCR 100μg/kg, 21 days", "value": "appeared similar to normal brain tissues"}, {"measurement": "Median survival of deceased animals", "setting": "intracerebral C6 glioma [5]", "value": 24, "unit": "days"}, {"measurement": "Time of death End", "setting": "intracerebral C6 glioma [5]", "value": 57, "unit": "days"}, {"measurement": "Time of death Start", "setting": "intracerebral C6 glioma [5]", "value": 23, "unit": "days"}, {"measurement": "Survival (# of rats) End", "setting": "intracerebral C6 glioma [5]; 63 days, n = 10", "value": "7 # of rats"}, {"measurement": "Survival", "setting": "intracerebral C6 glioma [5]; at 63 days", "value": "70 ^*** %"}, {"measurement": "Mean survival", "setting": "intracerebral C6 glioma [5]; observation 63 days", "value": "54.5 ± 16.4", "unit": "days"}, {"measurement": "Median survival", "setting": "intracerebral C6 glioma [5]; observation 63 days", "value": 63, "unit": "days"}]}
{"smiles": "CO[C@H]1C[C@@H]2CC[C@@H](C)[C@@](O)(O2)C(=O)C(=O)N2CCCC[C@H]2C(=O)O[C@H]([C@H](C)C[C@@H]2CC[C@@H](O)[C@H](OC)C2)CC(=O)[C@H](C)/C=C(\\C)[C@@H](O)[C@@H](OC)C(=O)[C@H](C)C[C@H](C)/C=C/C=C/C=C/1C", "note": "[rapamycin, Rapamycin]", "values": [{"measurement": "Survival", "setting": "rat 9L gliosarcoma", "value": 29, "unit": "days"}]}
